According to patent publication EP0520554A2, “C-21 hydroxylated FK-506 antagonist” (MERCK & CO. INC., priority 1991, dated 1992):

Test system: mouse T-cells activated with ionomycin + PMA
Test: T-cell proliferation assay (ionomycin plus PMA induced T-cell stimulation, tritiated thymidine uptake)
Format: cell-based, C57B1/6 mice
Description: The principle of this assay is to measure the proliferation of mouse T lymphocytes stimulated with the combination of ionomycin plus PMA. […] Cells were pelleted by centrifugation at 1500 rpm for 8 minutes. Contaminating red cells were removed by treating the pellet with ammonium chloride lysing buffer (GIBCO) for 2 minutes at 4°C. Cold medium was added and cells were again centrifuged at 1500 rpm for 8 minutes. T lymphocytes were then isolated by separation of the cell suspension on nylon wool columns as follows: Nylon wool columns were prepared by packing approximately 4 grams of washed and dried nylon wool into 20 ml plastic syringes. The columns were sterilized by autoclaving at 250°F for 30 minutes. Nylon wool columns were wetted with warm (37°C) culture medium and rinsed with the same medium. Washed spleen cells resuspended in warm medium were slowly applied to the nylon wool. The columns were then incubated in an upright position at 37°C for 1 hour. Non-adherent T lymphocytes were eluted from the columns with warm culture medium and the cell suspensions were spun as above. […] Ionomycin was added at 250 ng/ml and PMA at 10 ng/ml. The cell suspension was immediately distributed into 96 well flat-bottom microculture plates (Costar) at 200 µl/well. […] The proliferation of T lymphocytes was assessed by measurement of tritiated thymidine incorporation. After 44 hours of culturing, the cells were pulse-labelled with 2 µCi/well of tritiated thymidine (NEN, Cambridge, MA). After another 4 hours of incubation, cultures were harvested on glass fiber filters using a multiple sample harvester. Radioactivity of filter discs corresponding to individual wells was measured by standard liquid scintillation counting methods (Betacounter).

Structure (SMILES) | inhibition at 0.01 µg/mL (Mus musculus, T-cell) [%] | inhibition at 0.0012 µM (Mus musculus, T-cell, read-out: % Inhibition + FK-506 (1.2 nM)) [%] | inhibition at 0.125 µg/mL (Mus musculus, T-cell, sample 125 ng/ml, no FK-506, tritiated thymidine uptake, harvest at 48 hours) [%] | inhibition at 0.25 µg/mL (Mus musculus, T-cell, sample 250 ng/ml, no FK-506, tritiated thymidine uptake, harvest at 48 hours) [%] | inhibition at 0.5 µg/mL (Mus musculus, T-cell, sample 500 ng/ml, no FK-506, tritiated thymidine uptake, harvest at 48 hours) [%] | inhibition at 1 µg/mL (Mus musculus, T-cell, sample 1000 ng/ml, no FK-506, tritiated thymidine uptake, harvest at 48 hours) [%] | % Inhibition + FK-506 (1.2 nM) (sample 125 ng/ml in presence of FK-506 1.2 nM, harvest at 48 hours) [%] | % Inhibition + FK-506 (1.2 nM) (sample 250 ng/ml in presence of FK-506 1.2 nM, harvest at 48 hours) [%]
C=CC[C@@H]1/C=C(\C)C[C@H](C)C[C@H](OC)[C@H]2O[C@@](O)(C(=O)C(=O)N3CCCC[C@H]3C(=O)O[C@H](/C(C)=C/[C@@H]3CC[C@@H](O)[C@H](OC)C3)[C@H](C)[C@@H](O)CC1=O)[C@H](C)C[C@@H]2OC [FK-506] | 99 | 97 |  |  |  |  |  | 
CCC1(O)C=C(C)CC(C)CC(OC)C2OC(O)(C(=O)C(=O)N3CCCCC3C(=O)OC(C(C)=CC3CCC(O)C(OC)C3)C(C)C(O)CC1=O)C(C)CC2OC (centres unmarked) [21-OH-590, C-21 hydroxylated FR-900520] |  |  | 0 | 0 | 0 | 0 | 94 | 63
